Laboratory results from paper PMC4716659 (European journal of medicinal chemistry, 2015).
Converted amounts (≈) assume the structure as drawn. “Also recorded” adds a separate entry of the source.

Columns and labels:
[1] = system: methicillin-resistant Staphylococcus aureus (MRSA) ATCC 43300; assay: MIC, broth microdilution; type: cell-based; conditions: MRSA ATCC 43300
S. aureus NRS194 (MRSA) [2] = assay: MBC, plating onto TSA; type: cell-based, Staphylococcus aureus; conditions: Staphylococcus aureus, MRSA|NRS194
S. aureus NRS37 (VISA) [3] = assay: MIC, broth microdilution; type: cell-based, Staphylococcus aureus; conditions: Staphylococcus aureus, NRS37|VISA
S. aureus NRS107 (MRSA) [4] = assay: MIC, broth microdilution; type: cell-based, Staphylococcus aureus; conditions: Staphylococcus aureus, MRSA|NRS107
[5] = system: S. aureus ATCC 43300 (MRSA); assay: MBC, plating onto TSA; type: cell-based, Staphylococcus aureus; conditions: Staphylococcus aureus, ATCC43300|MRSA
S. aureus USA500 (MRSA) [6] = assay: MIC, broth microdilution; type: cell-based, Staphylococcus aureus; conditions: Staphylococcus aureus, MRSA|USA500
S. aureus NRS19 (VISA) [7] = assay: MBC, plating onto TSA; type: cell-based, Staphylococcus aureus; conditions: Staphylococcus aureus, NRS19|VISA
S. aureus VRS4 (VRSA) [8] = assay: MBC, plating onto TSA; type: cell-based, Staphylococcus aureus; conditions: Staphylococcus aureus, VRSA
S. aureus USA300 (MRSA) [9] = assay: MBC, plating onto TSA; type: cell-based, Staphylococcus aureus; conditions: Staphylococcus aureus, MRSA|USA300
S. aureus VRS5 (VRSA) [10] = assay: MIC, broth microdilution; type: cell-based, Staphylococcus aureus; conditions: Staphylococcus aureus, VRSA
S. aureus USA300 (MRSA) [11] = assay: MIC, broth microdilution; type: cell-based, Staphylococcus aureus; conditions: Staphylococcus aureus, MRSA|USA300
S. aureus NRS1 (VISA) [12] = assay: MBC, plating onto TSA; type: cell-based, Staphylococcus aureus; conditions: Staphylococcus aureus, NRS1|VISA
S. aureus NRS1 (VISA) [13] = assay: MIC, broth microdilution; type: cell-based, Staphylococcus aureus; conditions: Staphylococcus aureus, NRS1|VISA
S. aureus VRS5 (VRSA) [14] = assay: MBC, plating onto TSA; type: cell-based, Staphylococcus aureus; conditions: Staphylococcus aureus, VRSA
S. aureus NRS107 (MRSA) [15] = assay: MBC, plating onto TSA; type: cell-based, Staphylococcus aureus; conditions: Staphylococcus aureus, MRSA|NRS107
S. aureus VRS4 (VRSA) [16] = assay: MIC, broth microdilution; type: cell-based, Staphylococcus aureus; conditions: Staphylococcus aureus, VRSA
S. aureus NRS19 (VISA) [17] = assay: MIC, broth microdilution; type: cell-based, Staphylococcus aureus; conditions: Staphylococcus aureus, NRS19|VISA
S. aureus NRS119 (MRSA) [18] = assay: MIC, broth microdilution; type: cell-based, Staphylococcus aureus; conditions: Staphylococcus aureus, MRSA|NRS119
S. aureus NRS194 (MRSA) [19] = assay: MIC, broth microdilution; type: cell-based, Staphylococcus aureus; conditions: Staphylococcus aureus, MRSA|NRS194
S. aureus VRS1 (VRSA) [20] = assay: MBC, plating onto TSA; type: cell-based, Staphylococcus aureus; conditions: Staphylococcus aureus, VRSA
[21] = system: human embryonic kidney (HEK293) cell line; assay: In vitro cytotoxicity, MTS assay; conditions: 40 μg/mL
S. aureus NRS37 (VISA) [22] = assay: MBC, plating onto TSA; type: cell-based, Staphylococcus aureus; conditions: Staphylococcus aureus, NRS37|VISA
S. aureus USA 400 (MRSA) [23] = assay: MBC, plating onto TSA; type: cell-based, Staphylococcus aureus; conditions: Staphylococcus aureus, MRSA|USA400
S. aureus USA 400 (MRSA) [24] = assay: MIC, broth microdilution; type: cell-based, Staphylococcus aureus; conditions: Staphylococcus aureus, MRSA|USA400
S. aureus USA500 (MRSA) [25] = assay: MBC, plating onto TSA; type: cell-based, Staphylococcus aureus; conditions: Staphylococcus aureus, MRSA|USA500
S. aureus VRS1 (VRSA) [26] = assay: MIC, broth microdilution; type: cell-based, Staphylococcus aureus; conditions: Staphylococcus aureus, VRSA
S. aureus NRS119 (MRSA) [27] = assay: MBC, plating onto TSA; type: cell-based, Staphylococcus aureus; conditions: Staphylococcus aureus, MRSA|NRS119
two VISA isolates = assay: MIC against VISA isolates; type: cell-based; conditions: Staphylococcus aureus
[28] = Staphylococcus aureus, ATCC43300|MRSA

## CC(=O)c1sc(-c2ccc(-c3ccc(F)cc3)cc2)nc1C [21b, 1-(2-(4′-Fluoro-[1,1′-biphenyl]-4-yl)-4-methylthiazol-5-yl)ethanone]
[1]; [28]
  MIC: > 39.8 µg/mL

## CC(=O)c1sc(-c2ccc(-c3cccc4ccccc34)cc2)nc1C [compound 24, 1-(4-Methyl-2-(4-(naphthalen-1-yl)phenyl)thiazol-5-yl)ethanone]
[1]; [28]
  MIC: > 43.9 µg/mL

## CCCCc1ccc(-c2nc(C)c(C(=O)NCN(C)C)s2)cc1 [compound 13, 2-(4-Butylphenyl)-N-[(dimethylamino)methyl]-4-methylthiazole-5-carboxamide]
[1]; [28]
  MIC: 44.2 µg/mL (≈ 133 µM)

## [H]/N=C(\N)NN=C(C)c1sc(-c2ccc(-c3ccc(C(C)=O)cc3)cc2)nc1C [22d, (E)-2-(1-(2-(4′-Acetyl-[1,1′-biphenyl]-4-yl)-4-methylthiazol-5-yl)ethylidene)hydrazinecarboximidamide]
S. aureus NRS194 (MRSA) [2]
  MBC: 6.3 µg/mL (≈ 16.1 µM)
S. aureus NRS37 (VISA) [3]
  MIC: 3.1 µg/mL (≈ 7.92 µM)
S. aureus NRS107 (MRSA) [4]
  MIC: 6.3 µg/mL (≈ 16.1 µM)
[5]
  MBC: 6.3 µg/mL (≈ 16.1 µM)
S. aureus USA500 (MRSA) [6]
  MIC: 6.3 µg/mL (≈ 16.1 µM)
S. aureus NRS19 (VISA) [7]
  MBC: 12.5 µg/mL (≈ 31.9 µM)
S. aureus VRS4 (VRSA) [8]
  MBC: 3.1 µg/mL (≈ 7.92 µM)
S. aureus USA300 (MRSA) [9]
  MBC: 6.3 µg/mL (≈ 16.1 µM)
S. aureus VRS5 (VRSA) [10]
  MIC: 6.3 µg/mL (≈ 16.1 µM)
S. aureus USA300 (MRSA) [11]
  MIC: 6.3 µg/mL (≈ 16.1 µM)
S. aureus NRS1 (VISA) [12]
  MBC: 6.3 µg/mL (≈ 16.1 µM)
S. aureus NRS1 (VISA) [13]
  MIC: 6.3 µg/mL (≈ 16.1 µM)
S. aureus VRS5 (VRSA) [14]
  MBC: 6.3 µg/mL (≈ 16.1 µM)
S. aureus NRS107 (MRSA) [15]
  MBC: 12.5 µg/mL (≈ 31.9 µM)
S. aureus VRS4 (VRSA) [16]
  MIC: 1.6 µg/mL (≈ 4.09 µM)
S. aureus NRS19 (VISA) [17]
  MIC: 12.5 µg/mL (≈ 31.9 µM)
[1]; [28]
  MIC: 6.3 µg/mL (≈ 16.1 µM)
S. aureus NRS119 (MRSA) [18]
  MIC: 6.3 µg/mL (≈ 16.1 µM)
S. aureus NRS194 (MRSA) [19]
  MIC: 6.3 µg/mL (≈ 16.1 µM)
S. aureus VRS1 (VRSA) [20]
  MBC: 3.1 µg/mL (≈ 7.92 µM)
[21]
  toxicity to mammalian cells (MTS assay): not toxic; also recorded: improved toxicity profile
S. aureus NRS37 (VISA) [22]
  MBC: 6.3 µg/mL (≈ 16.1 µM)
S. aureus USA 400 (MRSA) [23]
  MBC: 6.3 µg/mL (≈ 16.1 µM)
S. aureus USA 400 (MRSA) [24]
  MIC: 6.3 µg/mL (≈ 16.1 µM)
S. aureus USA500 (MRSA) [25]
  MBC: 6.3 µg/mL (≈ 16.1 µM)
S. aureus VRS1 (VRSA) [26]
  MIC: 3.1 µg/mL (≈ 7.92 µM)
S. aureus NRS119 (MRSA) [27]
  MBC: 12.5 µg/mL (≈ 31.9 µM)

## CCCCc1ccc(-c2nc(C)c(/C(N)=N/O)s2)cc1 [compound 15, (Z)-2-(4-Butylphenyl)-N′-hydroxy-4-methylthiazole-5-carboximidamide]
[1]
  MIC: >37.0 µg/mL
[1]; [28]
  MIC: > 35.1 µg/mL

## [H]/N=C(\N)NN=C(C)c1sc(-c2ccc(-c3ccc(F)cc3)cc2)nc1C [22b, (E)-2-(1-(2-(4′-Fluoro-[1,1′-biphenyl]-4-yl)-4-methylthiazol-5-yl)ethylidene)hydrazinecarboximidamide]
S. aureus NRS194 (MRSA) [2]
  MBC: 11.7 µg/mL (≈ 31.8 µM)
S. aureus NRS37 (VISA) [3]
  MIC: 2.9 µg/mL (≈ 7.89 µM)
S. aureus NRS107 (MRSA) [4]
  MIC: 2.9 µg/mL (≈ 7.89 µM)
[5]
  MBC: 5.9 µg/mL (≈ 16.1 µM)
S. aureus USA500 (MRSA) [6]
  MIC: 5.9 µg/mL (≈ 16.1 µM)
S. aureus NRS19 (VISA) [7]
  MBC: 5.9 µg/mL (≈ 16.1 µM)
S. aureus VRS4 (VRSA) [8]
  MBC: 2.9 µg/mL (≈ 7.89 µM)
S. aureus USA300 (MRSA) [9]
  MBC: 5.9 µg/mL (≈ 16.1 µM)
S. aureus VRS5 (VRSA) [10]
  MIC: 2.9 µg/mL (≈ 7.89 µM)
S. aureus USA300 (MRSA) [11]
  MIC: 5.9 µg/mL (≈ 16.1 µM)
S. aureus NRS1 (VISA) [12]
  MBC: 2.9 µg/mL (≈ 7.89 µM)
S. aureus NRS1 (VISA) [13]
  MIC: 2.9 µg/mL (≈ 7.89 µM)
S. aureus VRS5 (VRSA) [14]
  MBC: 2.9 µg/mL (≈ 7.89 µM)
S. aureus NRS107 (MRSA) [15]
  MBC: 5.9 µg/mL (≈ 16.1 µM)
S. aureus VRS4 (VRSA) [16]
  MIC: 2.9 µg/mL (≈ 7.89 µM)
S. aureus NRS19 (VISA) [17]
  MIC: 5.9 µg/mL (≈ 16.1 µM)
[1]; [28]
  MIC: 5.9 µg/mL (≈ 16.1 µM)
S. aureus NRS119 (MRSA) [18]
  MIC: 5.9 µg/mL (≈ 16.1 µM)
S. aureus NRS194 (MRSA) [19]
  MIC: 5.9 µg/mL (≈ 16.1 µM)
S. aureus VRS1 (VRSA) [20]
  MBC: 2.9 µg/mL (≈ 7.89 µM)
[21]
  toxicity to mammalian cells (MTS assay): toxic
S. aureus NRS37 (VISA) [22]
  MBC: 5.9 µg/mL (≈ 16.1 µM)
Two VISA isolates
  MIC: 2.9 to 5.9 µg/mL (≈ 7.89 to 16.1 µM)
S. aureus USA 400 (MRSA) [23]
  MBC: 11.7 µg/mL (≈ 31.8 µM)
S. aureus USA 400 (MRSA) [24]
  MIC: 5.9 µg/mL (≈ 16.1 µM)
S. aureus USA500 (MRSA) [25]
  MBC: 5.9 µg/mL (≈ 16.1 µM)
S. aureus VRS1 (VRSA) [26]
  MIC: 2.9 µg/mL (≈ 7.89 µM)
S. aureus NRS119 (MRSA) [27]
  MBC: 11.7 µg/mL (≈ 31.8 µM)

## CCCCc1ccc(-c2nc(C)c(C(=O)NNC(=N)N)s2)cc1 [compound 11, 2-(2-(4-Butylphenyl)-4-methylthiazole-5-carbonyl)hydrazinecarboximidamide]
[1]; [28]
  MIC: > 42.4 µg/mL

## [H]/N=C(\N)NN=C(C)c1sc(-c2ccc(C#CCCCCCCC)cc2)nc1C [compound 7, (E)-2-(1-(4-Methyl-2-[4-(non-1-yn-1-yl)phenyl]thiazol-5-yl)ethylidene)hydrazinecarboximidamide]
[1]; [28]
  MIC: 12.6 µg/mL (≈ 31.9 µM)

## CC(=O)c1sc(-c2ccc(-c3ccc(C(F)(F)F)cc3)cc2)nc1C [21c, 1-(4-Methyl-2-(4′-(trifluoromethyl)-[1,1′-biphenyl]-4-yl)thiazol-5-yl)ethanone]
[1]; [28]
  MIC: > 46.2 µg/mL

## [H]/N=C(\N)NN=C(C)c1sc(-c2ccc(N)cc2)nc1C [compound 19, (E)-2-(1-(4-Methyl-2-(4-aminophenyl)thiazol-5-yl)ethylidene) hydrazinecarboximidamide]
[1]
  MIC: >36.9 µg/mL

## CCCCc1ccc(-c2nc(C)c(C(=O)NC(=N)NC(=N)N)s2)cc1 [compound 10, 2-(4-Butylphenyl)-N-(N-carbamimidoylcarbamimidoyl)-4-methylthiazole-5-carboxamide]
[1]; [28]
  MIC: > 45.8 µg/mL

## [H]/N=C(\N)NN=C(C)c1sc(-c2ccc(-c3ccc(O)cc3)cc2)nc1C [22a, (E)-2-(1-(2-(4′-Hydroxy-[1,1′-biphenyl]-4-yl)-4-methylthiazol-5-yl)ethylidene)hydrazinecarboximidamide]
[1]
  MIC: >46.7 µg/mL
[1]; [28]
  MIC: > 36.9 µg/mL

## CCCCc1ccc(-c2nc(C)c(-c3nnn[nH]3)s2)cc1 [compound 16, 2-(4-Butylphenyl)-4-methyl-5-(1H-tetrazol-5-yl)thiazole]
[1]
  MIC: >38.3 µg/mL
[1]; [28]
  MIC: > 35.1 µg/mL

## CCCCc1ccc(-c2nc(C)c(C(N)=O)s2)cc1 [compound 9, 2-(4-Butylphenyl)-4-methylthiazole-5-carboxamide]
[1]; [28]
  MIC: > 35.1 µg/mL

## CCCCc1ccc(-c2nc(C)c(C(=O)NC[C@@H](O)CO)s2)cc1 [compound 12, (R)-2-(4-Butylphenyl)-N-(2,3-dihydroxypropyl)-4methylthiazole-5-carboxamide]
[1]; [28]
  MIC: 44.5 µg/mL (≈ 128 µM)
